From patent US20120190707A1, “SELECTIVE INHIBITORS OF AKT AND METHODS OF USING SAME” (priority 2008, published 2012)

Columns and labels:
[1] = system: AKT; assay: AKT expression by western blot in MCF7 breast cancer cells; assay type: cell-based; conditions: MCF7, 5 and 10 micro.M
Protocol: (§1) (A) MeWo melanoma cells growing in 60 mm plates were treated with the indicated concentration of the inhibitor for 4 h before proteins were prepared for western blot analysis using the indicated antibodies. Level of beta.actin was monitored as a control for protein loading. (B) Experiment was performed as indicated in panel A, except that cells were harvested after 24 h for analysis of cell death using trypan blue staining. (C) Melanoma (MeWo), prostate cancer (PC3) and breast cancer (MCF7) cells were treated with BI-69A11 at the indicated concentrations; levels of AKT phosphorylation or expression were assessed 4 h later. The level of beta.actin used as a control for protein loading. (D) Experiment was performed as indicated in panel C, except that cells were harvested after 4 h for analysis of cell death using trypan blue staining.
For western blotting techniques, cells were lysed in RIPA buffer containing 50 mM TrisHCl pH7.4, 150 mM NaCl, 2 mM EDTA, 1% NP-40, 0.1% SDS. The protein concentration was estimated using the Coomassie Protein assay kit (Thermo Scientific, Rockford, Ill., USA). Equal concentrations of cell lysate (30-50 ug) were resolved on a 10% polyacrylamide gel and transferred onto Nitrocellulose membrane (GE Amersham). Membranes were blocked for 1-2 hours in either 3% BSA or 5% nonfat dried milk in Tris-buffered saline containing 0.05% Tween 20. […]

[2] = system: MCF7 cells; assay: Cell death by trypan blue staining, MCF7; assay type: cell-based; conditions: 5 micro.M, 4 hours
Protocol: as §1
For the proliferation assays, cells were treated as described above. However, instead of scraping cells into the serum-free medium, floating cells were collected in a 15 mL centrifuge tube whereas adherent cells trypsinized gently. The total cell population was pooled and counted on a hemocytometer after staining with Trypan Blue.

[3] = system: c-Jun; assay: Levels of HSP90 client protein c-Jun; assay type: cell-based; conditions: data not shown
Excerpt: Among cellular proteins implicated in the regulation of AKT levels is the cellular chaperone HSP90. Inhibition of HSP90 chaperone function, as commonly achieved by the geldanamycin antibiotic, interferes with the conformational maturation and refolding of its associated proteins, thereby promoting their degradation (Munster et al., 2002; Neckers and Neckers, 2003). […] Thus we assessed whether association of AKT with HSP90 could be affected by BI-69A11. Immunoprecipitation of AKT from melanoma cells identified HSP90 in the immunoprecipitated material. Such association was however abolished following treatment with the BI-69A11 inhibitor (FIG. 6C). […] To this end, we also performed the experiment in the presence of the proteasome inhibitor MG132.

[4] = system: NF-kB pathway; assay: TNF-α stimulated NF-kB pathway (IKK, IkB) western analysis in UACC903 cells; assay type: cell-based, human; conditions: 10 μM for 1 h prior to 20 ng/ml TNF-α
Protocol: UACC903 melanoma cells were exposed to 10 μM BI-69A11 or vehicle control for 1 h prior to treatment with 20 ng/ml TNF-α. Cells were harvested at the indicated time points and whole cell lysates were subjected to western analysis for phosphorylated IKK, total IKK, phosphorylated IkB, total IkB, and PLCγ (as loading control).
FIG. 11 describes how selected BI-69A11 analogs inhibit the NFkB pathway. UACC903 melanoma cells were exposed to vehicle control, 10 μM BI-69A11, or 10 μM analog for 1 h prior to stimulation with 20 ng/ml TNF-α as indicated. Cells were harvested at 5 min post-stimulation and whole cell lysates were subjected to western analysis for phosphorylated IKK, total IKK, phosphorylated IkB, total IkB, and […] (as loading control).
We first tested whether BI-69A11 inhibited the activation of the canonical NF-kB pathway (FIG. 10) in intact cells. […] In contrast, in cells treated with BI-69A11, both IKK and IkB phosphorylation were inhibited in response to TNF-a stimulation. Furthermore, the degradation of IkB protein was inhibited.
We next tested the ability of selected BI-69A11 analogs to inhibit the NF-kB pathway (FIG. 11). In this experiment, UACC903 cells were treated with vehicle, BI-69A11 or analog, stimulated with TNF-a, and harvested at 5 minutes post-stimulation. […]

## O=C(/C=C/c1nc2ccccc2[nH]1)c1c(O)nc2ccc(Cl)cc2c1-c1ccccc1 [Compound 2, (E)-3-(3-(1H-benzo[d]imidazol-2-yl)acryloyl)-6-chloro-4-phenylquinolin-2(1H)-one]
[1]
  AKT protein levels: not affected
[2]
  viability of MCF7 cells: did not affect
[3]
  c-Jun protein levels: did not affect
[4]
  degradation of IkB protein: inhibited
[4]; time course
  IKK and IkB phosphorylation in response to TNF-a stimulation: inhibited
